Assay results reported in article PMC4885489, “Prediction of Drug-Drug Interactions Arising from CYP3A induction Using a Physiologically Based Dynamic Model” (Drug Metabolism and Disposition, 2016).
Like-named read-outs stand apart in the source and are kept apart here.

Experiments:
[1] = human, in vivo
[2] = cited from earlier work
CYP3A [3] = conditions: mean of four human hepatocyte donors; three-parameter fit; Indmax = Emax + 1
CYP3A [4] = conditions: mean of four human hepatocyte donors; three-parameter fit; Indmax = Emax + 1; remark: listed apart in the source
[5] = cited from earlier work; remark: listed apart in the source
[6] = cited from earlier work; remark: listed apart in the source
[7] = ref Meta-analysis (Odar-Cederlof and Borga, 1974); (Tassaneeyakul et al., 1992); (Ducharme et al., 1995) and 3 others; cited from earlier work
rCYP2C19 [8] = assay: Recombinant enzyme metabolism kinetics, rCYP2C19; conditions: Calculated from CLiv using retrograde model
[9] = ref (Kurata and Wilkinson, 1974); cited from earlier work
CYP3A [10] = assay: in vitro; conditions: human, cryopreserved human hepatocytes
CYP2B6 = system: CYP2B6; set-up: method as in ref (Hariparsad et al., 2008); conditions: ref (Hariparsad et al., 2008), cited from earlier work
CYP2C9 = system: CYP2C9; set-up: method as in ref (Sahi et al., 2009); conditions: ref (Sahi et al., 2009), cited from earlier work
rCYP2C9 [11] = conditions: read-out: rCYP2C9 Km; ref (Rowland et al., 2008); cited from earlier work
rCYP2C9 [12] = assay: Recombinant enzyme metabolism kinetics, rCYP2C9; conditions: Calculated from CLiv using retrograde model
[13] = Monoprotic Acid; ref Meta-analysis (Pade and Stavchansky, 1998); (Avdeef et al., 2000); (Taillardat-Bertschinger et al., 2002); (Loeuillet-Ritzler and Faller, 2004); cited from earlier work
rCYP2C19 [14] = conditions: read-out: rCYP2C19 Km; ref (Giancarlo et al., 2001); (Bajpai et al., 1996); cited from earlier work
CYP3A [15] = assay: in vitro; conditions: human, cryopreserved human hepatocytes, probe testosterone (6β-hydroxytestosterone formation)
in vitro = conditions: human, human liver microsomes

CCC1(c2ccccc2)C(=O)NC(=O)NC1=O [Phenobarbital, phenobarbital]
ka [1]: 2 h⁻¹ | Vss (Minimal PBPK) ([2]; in vivo): 0.54 L/kg | Activity Indmax (CYP3A [3]): 21.1 fold | mRNA Indmax (CYP3A [4]): 44.2 fold | CLR ([5]; in vivo): 0.07 L/h | fe ([5]; in vivo): 0.24 | fa ([6]; ref (Varma et al., 2012)): 1

O=C1NC(=O)C(c2ccccc2)(c2ccccc2)N1 [Phenytoin, phenytoin]
fu [7]: 0.10 | rCYP2C19 Vmax (rCYP2C19 [8]): 1.53 pmol/min/pmol | B:P [9]: 0.61 | Vss (Minimal PBPK) ([2]; ref Meta-analysis (Gugler et al., 1976), (Odar-Cederlof and Borga, 1974), (Glazko et al., 1969), (Lund et al., 1974), (Perucca et al., 1978)): 0.57 L/kg | EC50 (CYP3A [10]): 123 µM | CYP2B6 Indmax (Fold, Emax +1) (CYP2B6): 1.9 Fold | EC50 (CYP2B6; read-out: CYP2B6 IndC50): 15.3 µM | CYP2C9 Indmax (Fold, Emax +1) (CYP2C9): 10.7 Fold | EC50 (CYP2C9; read-out: CYP2C9 IndC50): 9.8 µM | Activity Indmax (CYP3A [3]): 13.6 fold | Km (rCYP2C9 [11]): 4.1 µM | rCYP2C9 Vmax (rCYP2C9 [12]): 0.24 pmol/min/pmol | pKa(s) [13]: 8.15 | Km (rCYP2C19 [14]): 36.8 µM | mRNA Indmax (CYP3A [4]): 24.5 fold | CLR ([5]; from fe 0.008, ref (Kozelka and Hine, 1943), (Borga et al., 1979)): 0.015 L/h | fe ([5]; ref (Kozelka and Hine, 1943), (Borga et al., 1979)): 0.008 | CLiv ([5]; ref Meta-analysis (Gugler et al., 1976), (Glazko et al., 1969), (Lund et al., 1974), (Perucca et al., 1978)): 1.88 L/h | EC50 (CYP3A [15]): 51.3 µM | microsomal CLint (in vitro): 0.97 µL/min/mg | fa ([6]; ref (Bochner et al., 1973)): 0.9 | ka ([6]; ref (Tassaneeyakul et al., 1992)): 0.53 h⁻¹
